Values belong to the compound of their own block, whether it stands above or below them.
Assay: Particle size distribution (Malvern Mastersizer 3000) of starting and vortex-mill ground salts
Type: physicochemical
Method: The vortioxetine salts according to the present invention can be ground preferably in a vortex mill, if necessary. Such active ingredients ground in a vortex mill are used in the pharmaceutical compositions according to examples 20-23.
The distribution of the particle size is measured on a Malvern Mastersizer 3000 apparatus under the following conditions: […]

[1] = dispersing pressure 2.0 bar, monooxalate salt
[2] = dispersing pressure 2.0 bar, hemicitrate salt

- Characteristic particle size d10 [1]: 0.7 (±0.5%) μm
- Characteristic particle size d50 [1]: 2.2 (±0.7%) μm
- Characteristic particle size d90 [1]: 5.9 (±0.9%) μm
Compound: Cc1ccc(Sc2ccccc2N2CCNCC2)c(C)c1.O=C(O)C(=O)O [Vortioxetine-monooxalate ground, 1-[2-(2,4-dimethyl-phenylsulfanyl)-phenyl]-piperazine monooxalate salt]

- Characteristic particle size d10 (dispersing pressure 2.0 bar): 0.4 (±0.5%) μm
- Characteristic particle size d50 (dispersing pressure 2.0 bar): 2.1 (±0.7%) μm
- Characteristic particle size d90 (dispersing pressure 2.0 bar): 6.2 (±1.0%) μm
Compound: Br.Cc1ccc(Sc2ccccc2N2CCNCC2)c(C)c1 [Vortioxetine-hydrobromide ground, 1-[2-(2,4-dimethyl-phenylsulfanyl)-phenyl]-piperazine hydrobromide salt, reference compound]

- Characteristic particle size d10 [1]: 2.0 (±0.3%) μm
- Characteristic particle size d50 [1]: 6.8 (±0.5%) μm
- Characteristic particle size d90 [1]: 21.14 (±0.7%) μm
Compound: Cc1ccc(Sc2ccccc2N2CCNCC2)c(C)c1.O=C(O)C(=O)O [Vortioxetine-monooxalate, 1-[2-(2,4-dimethyl-phenylsulfanyl)-phenyl]-piperazine monooxalate salt]

Continued, compound first:

Compound: Br.Cc1ccc(Sc2ccccc2N2CCNCC2)c(C)c1 [Vortioxetine-hydrobromide, 1-[2-(2,4-dimethyl-phenylsulfanyl)-phenyl]-piperazine hydrobromide salt, reference compound]
- Characteristic particle size d10 (dispersing pressure 4.0 bar): 1.4 (±2.2%) μm
- Characteristic particle size d50 (dispersing pressure 4.0 bar): 10.8 (±1.6%) μm
- Characteristic particle size d90 (dispersing pressure 4.0 bar): 98.6 (±4.3%) μm

Compound: 1-[2-(2,4-dimethyl-phenylsulfanyl)-phenyl]-piperazine L-(+)-mandelic acid salt [Vortioxetine-L-mandalate]
- Characteristic particle size d10 (dispersing pressure 2.0 bar): 8.6 (±0.2%) μm
- Characteristic particle size d50 (dispersing pressure 2.0 bar): 41.5 (±0.2%) μm
- Characteristic particle size d90 (dispersing pressure 2.0 bar): 114 (±0.9%) μm

Compound: 1-[2-(2,4-dimethyl-phenylsulfanyl)-phenyl]-piperazine hemicitrate salt [Vortioxetine-hemicitrate ground]
- Characteristic particle size d10 [2]: 0.6 (±0.7%) μm
- Characteristic particle size d50 [2]: 2.9 (±0.2%) μm
- Characteristic particle size d90 [2]: 9.1 (±1.1%) μm

Compound: 1-[2-(2,4-dimethyl-phenylsulfanyl)-phenyl]-piperazine hemicitrate salt [Vortioxetine-hemicitrate]
- Characteristic particle size d10 [2]: 5.3 (±0.4%) μm
- Characteristic particle size d50 [2]: 25.9 (±0.7%) μm
- Characteristic particle size d90 [2]: 83.6 (±0.4%) μm

Compound: 1-[2-(2,4-dimethyl-phenylsulfanyl)-phenyl]-piperazine L-(+)-mandelic acid salt [Vortioxetine-L-mandalate ground]
- Characteristic particle size d10 (dispersing pressure 2.0 bar): 0.5 (±0.6%) μm
- Characteristic particle size d50 (dispersing pressure 2.0 bar): 2.1 (±0.2%) μm
- Characteristic particle size d90 (dispersing pressure 2.0 bar): 5.0 (±0.9%) μm

— patent publication US9822086B2, “Process for the preparation of vortioxetine salts” (Egis Gyogyszergyar Zrt., priority 2014, dated 2017)
